The values below are quoted from earlier work in patent publication US20210290639A1, “IMMEDIATE RELEASE FORMULATION OF A TRIPLE COMBINATION OF ACTIVE PHARMACEUTICAL INGREDIENTS USEFUL IN THE TREATMENT OF POLYCYSTIC OVARY SYNDROME” (priority 2018, published 2021).

The conditions of the data set: low solubility and high permeability.

Take `CC(=O)S[C@@H]1CC2=CC(=O)CC[C@]2(C)[C@H]2CC[C@@]3(C)[C@@H](CC[C@@]34CCC(=O)O4)[C@H]12` [spironolactone, 7α-Acetylthio-3-oxo-17α-pregn-4-ene-21,17β-carbolactone]: the BCS class result was “Class II”. Take `CCc1ccc(CCOc2ccc(CC3SC(=O)NC3=O)cc2)nc1` (racemic) [pioglitazone, ((±)-5-[p-[2-(5-Ethyl-2-pyridyl)ethoxy]benzyl]-2,4-thiazolidinedione]: the BCS class result is “Class II”.
